Laboratory results reported in patent publication US10494338B2, “Prostaglandin derivative” (AGC INC., priority 2016, dated 2019).

Test system: rat platelet aggregation
Test: Inhibitory action on rat platelet aggregation in vitro (ADP-induced, platelet-rich plasma)
Format: cell-based
Settings: SD rat PRP, ADP 2 μmol/L; relative activity from IC50, activity of IC50 value of PGE1 = 100
Experimental: Experimental Example 2: Evaluation of Inhibitory Action on Rat Platelet Aggregation In Vitro (1) Preparation of Rat Platelet-Rich Plasma In the same manner as in the above-mentioned Experimental Example 1(1), blood samples were collected from the abdominal artery of 8- to 9-week-old male SD rats. PRP was diluted with PPP and the number of platelet was adjusted to 63.2×10^4/μL. (2) Measurement of Platelet Aggregation Ability In the same manner as in the above-mentioned Experimental Example 1(2) except that the final concentration of ADP was 2 μmol/L, the compound of the present invention, prostaglandin E1 (PGE1:positive control substance) or vehicle control was added as a test substance, and the maximum response of aggregation was measured. (3) Evaluation of Platelet Aggregation Inhibitory Action In the same manner as in the above-mentioned Experimental Example 1(3), IC50 values were determined from the aggregation inhibition ratio of the test substance, and the relative activity (%) of each test substance was calculated by defining the activity of IC50 value of PGE1 as 100.

CCC#CC[C@H](C)C(O)/C=C/[C@H]1[C@H](O)CC(=O)[C@@H]1CCSCCCC(=O)OC (mixture of isomers) [compound (1)-1, methyl 4-((2-((1R,2R,3R)-3-hydroxy-2-((1E,3RS,4S)-3-hydroxy-4-methylnon-1-en-6-yn-1-yl)-5-oxocyclopentyl)ethyl)thio)butanoate]
Relative activity (%): 169%

CCC#CC[C@H](C)C(O)/C=C/[C@H]1[C@H](O)CC(=O)[C@@H]1CCCCCCC(=O)OC (stereo partly drawn) [compound (1)-3, methyl ((1R,2R,3R)-3-hydroxy-2-((1E,3RS,4S)-3-hydroxy-4-methylnon-1-en-6-yn-1-yl)-5-oxocyclopentyl)heptanoate]
Relative activity (%): 2175%

CCC#CC[C@H](C)[C@H](O)/C=C/[C@H]1[C@H](O)CC(=O)[C@@H]1CCCCCC(F)(F)C(=O)O [compound (1)-8, 2,2-difluoro-7-((1R,2R,3R)-3-hydroxy-2-((1E,3S,4S)-3-hydroxy-4-methylnon-1-en-6-yn-1-yl)-5-oxocyclopentyl)heptanoic acid]
Relative activity (%): 817%
